Results as given in patent publication US10323001B2, “Compositions for modulating a kinase cascade and methods of use thereof” (Athenex, Inc., priority 2006, dated 2019).
Read-outs that look alike come from different tables or passages of the source.

How the values were obtained:
[1] = Moisture-sorption analysis (Hiden IGAsorp); assay type: physicochemical; details: 25° C.
Procedure: Moisture-sorption experiments were performed using a Hiden IGAsorp Moisture Sorption instrument on KX2-391.MSA obtained in accordance with the process of the present invention (Example 4). First, the sample was dried at 0% Relative Humidity (RH) and 25° C. until an equilibrium weight was reached or for a maximum of four hours. The sample was then subjected to an isothermal (25° C.) adsorption scan from 10 to 90% RH in steps of 10%. The sample was allowed to equilibrate to an asymptotic weight at each point for a maximum of four hours. Following adsorption, a desorption scan from 85 to 0% RH (at 25° C.) was run in steps of −10% again allowing a maximum of four hours for equilibration to an asymptotic weight. The sample was then dried for one hour at 80° C. and the resulting solid analyzed by XRPD. […] FIG. 10 depicts percent change of water content as a function of relative humidity for KX2-391.MSA, Form A.
Moisture-sorption experiments were performed using a Hiden IGAsorp Moisture Sorption Instrument on KX2-391.2HCl obtained in accordance with the process of the present invention (Example 3). First, the sample was dried at 0% Relative Humidity (RH) and 25° C. until an equilibrium weight was reached or for a maximum of four hours. The sample was then subjected to an isothermal (25° C.) adsorption scan from 10 to 90% RH in steps of 10%. The sample was allowed to equilibrate to an asymptotic weight at each point for a maximum of four hours. Following adsorption, a desorption scan from 85 to 0% RH (at 25° C.) was run in steps of −10% again allowing a maximum of four hours for equilibration to an asymptotic weight. The sample was then dried for one hour at 80° C. and the resulting solid analyzed by XRPD.

[2] = Solubility in DI water and pH 2.0 phosphate buffer; assay type: physicochemical; details: for solubility: thermodynamic from solid
Procedure: The table below summarizes additional characterization data for the fumaric and maleate KX2-391.MSA salts and compares it to free base, bis-HCl, and MSA salts described above. The results in the table below were obtained using the procedures described above in Examples 5 (XRPD), 6 (DSC), 7 (TGA), and 8 (moisture-sorption).
Solubility experiments were also performed using pH 2.0 phosphate buffer and DI water pH 6.9 and KX2-391.MSA, Form A. Each vial was filled with approximately 50 mg of KX2-391.MSA, Form A and 100 μL aliquots of the corresponding solvent was added until complete dissolution was observed, followed by stirring at room temperature for one and five days. The solids obtained were isolated by filtration, dried under vacuum at room temperature and analyzed by HPLC. The initial HPLC purity of KX2-391.MSA, Form A was 99.4 (% area). The solubility by HPLC of KX2-391.MSA, Form A in phosphate buffer/RT was >500 mg/mL and HPLC purity was measured to be 99.4. The solubility by HPLC of KX2-391.MSA, Form A in DI H2O/RT was >500 mg/mL and HPLC purity was measured to be 99.4.

[3] = Humidity chamber hygroscopicity study (salt solution chambers, visual inspection); assay type: physicochemical; details: ambient temperature
[4] = as above; assay type: physicochemical; details: ambient temperature
Procedure: Further characterization of the hygroscopicity of the mesylate salt was performed using several humidity chambers to cover a range of humidity from 75, 88 to 95% RH. The 75, 88, and 95% RH chambers were prepared with NaCl, BaCl2.2H2O, and Na2HPO4.12 H2O respectively and were equilibrated for 48 hours prior to introducing the samples. Samples were placed into aluminum pans and monitored by visual inspection for up to five days. Table 3 summarizes the observations at 0, 3, 5, 24, 48, 72, 96 and 120 hour time points.
Moisture sorption studies conducted at ambient temperature utilizing salt solution humidity chambers were conducted to evaluate solid stability by visual inspection.

[5] = Threshold solubility of salt screen 96 well plate; details: DI water
Procedure: Following each addition, the plate was shaken to encourage mixing for at least 5 minutes prior to evaluation.

[6] = 5 mg/mL DI water dissolution experiment; assay type: physicochemical; set-up: key to dissolution state: P—Particulates partially dissolved; D—Particulates fully dissolved; details: for dissolution in 5 mg/mL DI water experiment: 5 mg in 1 mL DI water
Procedure: Dissolution experiments were performed on KX2-391 salts to provide a better understanding of the salts interaction in water. This was accomplished using a 5 mg/mL DI water dissolution experiment where 5 mg of each salt was weighed into a vial and 1 mL of DI wather was added. The solution was monitored visually with magnetic stirring over a 20 minute time period to observe the time of dissolution.

[7] = % RH 90.0102, end of adsorption
[8] = % RH 90.0102, start of desorption
[9] = % RH −0.0430, end of desorption
[10] = % RH −0.0500, start of adsorption scan
[11] = salt screen well: 1 Equivalent of Acid, ACN
[12] = salt screen well: 1 Equivalent of Acid, Acetone
[13] = salt screen well: 1 Equivalent of Acid, Dioxane
[14] = salt screen well: 1 Equivalent of Acid, EtOH
[15] = salt screen well: 1 Equivalent of Acid, IPA
[16] = salt screen well: 1 Equivalent of Acid, THF
[17] = salt screen well: 2 Equivalents of Acid, Acetone
[18] = salt screen well: 2 Equivalents of Acid, Dioxane
[19] = salt screen well: 2 Equivalents of Acid, THF
[20] = about 5 mg in 1 mL DI water, magnetic stirring, 0 s
[21] = about 5 mg in 1 mL DI water, magnetic stirring, 30 s
[22] = about 5 mg in 1 mL DI water, magnetic stirring, 1 min
[23] = about 5 mg in 1 mL DI water, magnetic stirring, 2 min
[24] = about 5 mg in 1 mL DI water, magnetic stirring, 5 min
[25] = about 5 mg in 1 mL DI water, magnetic stirring, 10 min (1 mL DI water added)
[26] = about 5 mg, after additional 1 mL DI water, 15 min
[27] = about 5 mg, after additional 1 mL DI water, 20 min

Cl.Cl.O=C(Cc1ccc(-c2ccc(OCCN3CCOCC3)cc2)cn1)NCc1ccccc1 [KX2-391.2HCl, 2-(5-(4-(2-morpholinoethoxy)phenyl)pyridine-2-yl)-N-benzylacetamide dihydrochloride]
inflection point of moisture sorption (suggesting deliquescence) [1]: 40-50 % RH
hygroscopicity by moisture sorption analysis ([1]; adsorption scan 10 to 90% RH): significantly hygroscopic
water absorbed at 60% RH ([1]; 60% RH): 16.7 wt %
Moisture Sorption Wt % Water @ 90% RH [1]: 27.0 wt %
Mole ration (water:sample) ([1]; % RH 4.9957, desorption): 1.3860
Wt % water ([1]; % RH 4.9957, desorption): 4.7176 Wt %
Mole ration (water:sample) ([1]; % RH 10.0011, adsorption): 2.0998
Wt % water ([1]; % RH 10.0011, adsorption): 6.9776 Wt %
Mole ration (water:sample) ([1]; % RH 15.0035, desorption): 2.0512
Wt % water ([1]; % RH 15.0035, desorption): 6.8271 Wt %
Mole ration (water:sample) ([1]; % RH 20.0071, adsorption): 2.4810
Wt % water ([1]; % RH 20.0071, adsorption): 8.1412 Wt %
Mole ration (water:sample) ([1]; % RH 25.0029, desorption): 4.0655
Wt % water ([1]; % RH 25.0029, desorption): 12.6812 Wt %
Mole ration (water:sample) ([1]; % RH 29.9953, adsorption): 2.7855
Wt % water ([1]; % RH 29.9953, adsorption): 9.0498 Wt %
Mole ration (water:sample) ([1]; % RH 35.0089, desorption): 4.3683
Wt % water ([1]; % RH 35.0089, desorption): 13.4981 Wt %
Mole ration (water:sample) ([1]; % RH 39.9936, adsorption): 3.1317
Wt % water ([1]; % RH 39.9936, adsorption): 10.0615 Wt %
Mole ration (water:sample) ([1]; % RH 45.0063, desorption): 4.6309
Wt % water ([1]; % RH 45.0063, desorption): 14.1945 Wt %
Mole ration (water:sample) ([1]; % RH 50.0083, adsorption): 4.7853
Wt % water ([1]; % RH 50.0083, adsorption): 14.5986 Wt %
Mole ration (water:sample) ([1]; % RH 54.9876, desorption): 4.8578
Wt % water ([1]; % RH 54.9876, desorption): 14.7870 Wt %
Mole ration (water:sample) ([1]; % RH 59.9940, adsorption): 5.6228
Wt % water ([1]; % RH 59.9940, adsorption): 16.7261 Wt %
Mole ration (water:sample) ([1]; % RH 64.9989, desorption): 5.0957
Wt % water ([1]; % RH 64.9989, desorption): 15.3997 Wt %
Mole ration (water:sample) ([1]; % RH 70.0044, adsorption): 6.6487
Wt % water ([1]; % RH 70.0044, adsorption): 19.1922 Wt %
Mole ration (water:sample) ([1]; % RH 75.0016, desorption): 5.5767
Wt % water ([1]; % RH 75.0016, desorption): 16.6119 Wt %
Mole ration (water:sample) ([1]; % RH 80.0002, adsorption): 7.4350
Wt % water ([1]; % RH 80.0002, adsorption): 20.9856 Wt %
Mole ration (water:sample) ([1]; % RH 84.9979, desorption): 8.3910
Wt % water ([1]; % RH 84.9979, desorption): 23.0617 Wt %
Mole ration (water:sample) [1, 7]: 10.3345
Wt % water [1, 7]: 26.9630 Wt %
Mole ration (water:sample) [1, 8]: 10.3345
Wt % water [1, 8]: 26.9630 Wt %
Mole ration (water:sample) [1, 9]: 0.3038
Wt % water [1, 9]: 1.0737 Wt %
Mole ration (water:sample) [1, 10]: 1.7493
Wt % water [1, 10]: 5.8814 Wt %
pH of solubility sample [2]: 2.1
pH of solubility sample ([2]; pH 2): (1.9)
solubility ([2]; pH 2, aqueous buffer): > 500 mg/mL
solubility ([2]; pH 6.9, water): > 500 mg/mL
Results (visual inspection) ([3]; 32% RH, 7 days, dihydrochloride): remain stable
Results (visual inspection) ([3]; 32% RH, 7 days, listed as KX2-391•2HCl, dihydrochloride): Solid
Results (visual inspection) ([3]; 42% RH, dihydrochloride): Deliquescence
Results (visual inspection) ([3]; 51% RH): Deliquescence
Time to deliquescence ([4]; 42% RH): <3 h
Results (visual inspection) ([4]; 42% RH, dihydrochloride): deliquescence was observed within three hours
Time to deliquescence ([4]; 51% RH, dihydrochloride): ≤ 12 h
Time to deliquescence ([4]; 51% RH, listed as KX2-391•2HCl, dihydrochloride): <12 h
Results (visual inspection) ([4]; 95% RH): Deliquescence
Time to deliquescence ([4]; 95% RH, dihydrochloride): ≤ 12 h
Time to deliquescence ([4]; 95% RH, listed as KX2-391•2HCl, dihydrochloride): <12 h
deliquescence humidity at ambient temperature [4]: 32-42 % RH

O=C(Cc1ccc(-c2ccc(OCCN3CCOCC3)cc2)cn1)NCc1ccccc1.O=C(O)C=CC(=O)O [Fumaric]
Moisture Sorption Wt % Water @ 90% RH [1]: 0.5 wt %
Threshold solubility rank [5, 11]: 5
Threshold solubility rank [5, 12]: 5
Threshold solubility rank [5, 13]: 4
Threshold solubility rank [5, 14]: 2
Threshold solubility rank [5, 15]: 2
Threshold solubility rank [5, 16]: 5
Threshold solubility rank ([5]; salt screen well: 2 Equivalents of Acid, ACN): 5
Threshold solubility rank [5, 17]: 5
Threshold solubility rank [5, 18]: 2
Threshold solubility rank ([5]; salt screen well: 2 Equivalents of Acid, IPA): 2
Threshold solubility rank [5, 19]: 5
Solubility mg/mL [2]: DI H20: 7.6 mg/mL
pH of solubility sample [2]: (4.5*)
Solubility mg/mL ([2]; pH 2): pH 2: 21.5 mg/mL
pH of solubility sample ([2]; pH 2): (4.5*)
dissolution in 5 mg/mL DI water experiment ([6]; magnetic stirring): not observed to dissolve solids within 10 minutes
dissolution state [6, 20]: P
dissolution state [6, 21]: P
dissolution state [6, 22]: P
dissolution state [6, 23]: P
dissolution state [6, 24]: P
dissolution state [6, 25]: P
dissolution state [6, 26]: P
dissolution state [6, 27]: D

Maleate
Moisture Sorption Wt % Water @ 90% RH [1]: 1.4 wt %
Threshold solubility rank [5, 11]: N
Threshold solubility rank [5, 12]: N
Threshold solubility rank [5, 13]: N
Threshold solubility rank [5, 14]: N
Threshold solubility rank [5, 15]: N
Threshold solubility rank [5, 16]: N
Threshold solubility rank [5, 17]: 1
Threshold solubility rank [5, 18]: 1
Threshold solubility rank [5, 19]: 1
Solubility mg/mL ([2]; DI H2O): DI H20: 7.3 mg/mL
pH of solubility sample ([2]; DI H2O, * approximate, pH paper instead of meter): (4.5*)
Solubility mg/mL ([2]; pH 2): pH 2: 21.2 mg/mL
pH of solubility sample ([2]; pH 2 medium, * approximate, pH paper instead of meter): (4.5*)
dissolution in 5 mg/mL DI water experiment ([6]; magnetic stirring): not observed to dissolve solids within 10 minutes
dissolution state [6, 20]: P
dissolution state [6, 21]: P
dissolution state [6, 22]: P
dissolution state [6, 23]: P
dissolution state [6, 24]: P
dissolution state [6, 25]: P
dissolution state [6, 26]: P
dissolution state [6, 27]: P

Cc1ccc(S(=O)(=O)O)cc1.O=C(Cc1ccc(-c2ccc(OCCN3CCOCC3)cc2)cn1)NCc1ccccc1 [p-TSA]
Threshold solubility rank [5, 11]: 5
Threshold solubility rank [5, 12]: 5
Threshold solubility rank [5, 13]: 5
Threshold solubility rank [5, 14]: 5
Threshold solubility rank [5, 15]: 5
Threshold solubility rank [5, 16]: 5

O=C(O)CC(O)C(=O)O (stereo not drawn) [Malic]
Threshold solubility rank [5, 13]: 1
